From patent US20160256560A1, “Environmentally Sensitive Compositions” (priority 2010, published 2016)
Values joined by “and” are separate entries in the source; they are usually repeats but may differ in a detail not shown here. Equal values may be shown once. Read-outs that look alike come from different tables or passages of the source. *1 amine or outer side, *2 acyl side, *3 side chain or, on linkers, in order; H or OH if unused. Where a SMILES comes first, the peptide text is derived from it. Bridges are numbered along the chain shown (N, C = ends). Where no end group is shown, it is not given here. [ ]: non-standard residue; d: D form. ξ: configuration not given here. X3 = CN(C)c1ccc2c(c1)Oc1cc(N(C)C)ccc1C2=C1C=CC(=NC(=S)NC[C@](C)(O)C[C@H](N[*:1])C(=O)[*:2])C=C1C(=O)O; X2 = CCCCCCCC/C=C\CCCCCCCC(=O)OC[C@](C)(O)C[C@H](N[*:1])C(=O)[*:2]; Trp(2-yl) = O=C([C@H](Cc1c([*:3])[nH]c2ccccc12)N[*:1])[*:2]; ξTrp(2-yl) = O=C(C(Cc1c([*:3])[nH]c2ccccc12)N[*:1])[*:2]; X1 = CC(O)(CO)CC(N[*:1])C(=O)[*:2]; cisHyp = O=C(O)[C@@H]1C[C@H](O)CN1; ξAsp(3ξ-OH) = NC(C(=O)O)C(O)C(=O)O; Hyp = O=C(O)[CH]1C[CH](O)CN1

Key:
[1] = not given; remark: listed apart in the source
[2] = pH 5.5
actin filaments = conditions: read-out: Kd, binding to actin filaments; cited from earlier work
HeLa cells [3] = type: cell-based, human; conditions: for antiproliferative effect at either pH: pH 6
HeLa-GFP cells = assay: Cellular uptake of nanogold (silver enhancement, image analysis); type: cell-based, human; conditions: 1 h
HeLa tumors = conditions: mouse, in vivo
[4] = Stopped-flow fluorescence and CD kinetics of insertion/folding and exit/unfolding; type: physicochemical
tumor = assay: Animal studies of variants: tumor/organ fluorescence 4 and 24 h post-injection; conditions: after 24 hours
[5] = test system: luciferase pre-mRNA aberrant splice sites in HeLa cells; type: cell-based, human
tumors = test system: tumors; set-up: species or system nude mice; conditions: mouse, in vivo
HeLa cells [6] = test system: HeLa cells

## GGEQNPIYWAQDYAWLFTTPLLLLDLALLVDADEGTCG [R11Q; D14UpUp]
other
  pH 8 Solubility: Y

## AAEQNPIYWARYADWLFTTALLLLDLALLVDADEGT [P20A]
[1]; pH 8
  Findings: solubility / aggregation: Aggregates

## phallacidin-(CH2)10NH2 [phallC10]
[2]
  Log P (octanol-water partition coefficient): +1.28

## C[C@@H]1NC(=O)[C@H](C[C@@](C)(O)CNC(=S)N=C2C=CC(=C3c4ccc(N(C)C)cc4Oc4cc(N(C)C)ccc43)C(C(=O)O)=C2)NC(=O)[C@@H]2Cc3c([nH]c4ccccc34)SC[C@H](NC(=O)[C@@H]([C@H](C)O)NC1=O)C(=O)N1C[C@@H](O)C[C@H]1C(=O)N[C@@H](C)C(=O)N2 [phalloidin-TRITC] (cyclo(A[dT]C[cisHyp]A[Trp(2-yl)][X3]); thioether 3-6)
Actin filaments
  Kd: 40 nM

## CC1NC(=O)C2CC(O)CN2C(=O)C2CSc3[nH]c4ccccc4c3CC(NC1=O)C(=O)NC(CC(C)(O)CO)C(=O)NC(C(C)C)C(=O)NC(C(O)C(=O)O)C(=O)N2 (stereo not drawn) [phallacidin, reference compound] (cyclo([ξAsp(3ξ-OH)]C[Hyp]A[ξTrp(2-yl)][X1]V); thioether 2-5; configuration not given here)
HeLa cells [3]
  antiproliferative effect at either pH: does not demonstrate an antiproliferative effect at either pH
[2]
  Log P (octanol-water partition coefficient): −1.6

## AEQNPIYWARYADWLFTTPL [Short-Cys]
physchem
  pKa: 4.4

## AEDQNPYWARYADWLFTTPLLLLDLALLVDCG [Fast1-Cys]
physchem
  pKa: 6.1

## GGEQNPIYWARYADWLFTTPLLLDLLALLVDADEGTCG [D25Up]
other
  pH 8 Solubility: N

## CC[C@H](C)[C@H](NC(=O)[C@@H]1CCCN1C(=O)[C@H](CC(N)=O)NC(=O)[C@H](CCC(N)=O)NC(=O)[C@H](CCC(=O)O)NC(=O)[C@H](C)NC(=O)[C@H](C)N)C(=O)N[C@@H](Cc1ccc(O)cc1)C(=O)N[C@@H](Cc1c[nH]c2ccccc12)C(=O)N[C@@H](C)C(=O)N[C@@H](CCCNC(=N)N)C(=O)N[C@@H](Cc1ccc(O)cc1)C(=O)N[C@@H](C)C(=O)N[C@@H](CC(=O)O)C(=O)N[C@@H](Cc1c[nH]c2ccccc12)C(=O)N[C@@H](CC(C)C)C(=O)N[C@@H](Cc1ccccc1)C(=O)N[C@H](C(=O)N[C@H](C(=O)N1CCC[C@H]1C(=O)N[C@@H](CC(C)C)C(=O)N[C@@H](CC(C)C)C(=O)N[C@@H](CC(C)C)C(=O)N[C@@H](CC(C)C)C(=O)N[C@@H](C)C(=O)N[C@@H](CC(C)C)C(=O)N[C@@H](C)C(=O)N[C@@H](CC(C)C)C(=O)N[C@@H](CC(C)C)C(=O)N[C@H](C(=O)N[C@@H](CC(=O)O)C(=O)N[C@@H](C)C(=O)N[C@@H](CC(=O)O)C(=O)N[C@@H](CCC(=O)O)C(=O)NCC(=O)N[C@H](C(=O)N[C@@H](CS)C(=O)NCC(=O)O)[C@@H](C)O)C(C)C)[C@@H](C)O)[C@@H](C)O [D25A]
other
  pH 8 Solubility: N

## gold-pHLIP: 1.4 nm monomaleimido Nanogold conjugated to N-terminal Cys of pHLIP (ACEQNPIYWARYADWLFTTPLLLLDLALLVDADET) (AC(1.4 nm monomaleimido Nanogold)EQNPIYWARYADWLFTTPLLLLDLALLVDADET)
HeLa-GFP cells; 2 μM
  cellular uptake at pH6.5 versus pH7.4 (times higher): 1.6
HeLa-GFP cells; pH6.5, 2 μM
  uptake of gold versus unmodified gold nanoparticles (times): 6.4
HeLa-GFP cells; pH7.4, 2 μM
  uptake of gold versus unmodified gold nanoparticles (times): 3
HeLa tumors
  tumor/muscle ratio: 5.6
HeLa tumors; iv
  gold in tumor versus gold nanoparticles alone (times): 6

## AAEQNPIYWARYAEWLFTTPLLLLELALLVDADEGTCG [D14/25E]
other
  pH 8 Solubility: N

## DDDEDNPIYWARYAHWLFTTPLLLLDGALLVDADECT [D3b]
other
  pH 8 Solubility: Y

## DDDEDNPIYWARYAHWLFTTPLLLLHGALLVNANECT [D0]
other
  pH 8 Solubility: Y

## CC[C@H](C)[C@H](NC(=O)[C@@H]1CCCN1C(=O)[C@H](CC(N)=O)NC(=O)[C@H](CCC(N)=O)NC(=O)[C@H](CCC(=O)O)NC(=O)[C@H](C)NC(=O)[C@H](C)N)C(=O)N[C@@H](Cc1ccc(O)cc1)C(=O)N[C@@H](Cc1c[nH]c2ccccc12)C(=O)N[C@@H](C)C(=O)N[C@@H](CCCNC(=N)N)C(=O)N[C@@H](Cc1ccc(O)cc1)C(=O)N[C@@H](C)C(=O)N[C@@H](CCC(=O)O)C(=O)N[C@@H](Cc1c[nH]c2ccccc12)C(=O)N[C@@H](CC(C)C)C(=O)N[C@@H](Cc1ccccc1)C(=O)N[C@H](C(=O)N[C@H](C(=O)N1CCC[C@H]1C(=O)N[C@@H](CC(C)C)C(=O)N[C@@H](CC(C)C)C(=O)N[C@@H](CC(C)C)C(=O)N[C@@H](CC(C)C)C(=O)N[C@@H](CC(=O)O)C(=O)N[C@@H](CC(C)C)C(=O)N[C@@H](C)C(=O)N[C@@H](CC(C)C)C(=O)N[C@@H](CC(C)C)C(=O)N[C@H](C(=O)N[C@@H](CC(=O)O)C(=O)N[C@@H](C)C(=O)N[C@@H](CC(=O)O)C(=O)N[C@@H](CCC(=O)O)C(=O)NCC(=O)N[C@H](C(=O)N[C@@H](CS)C(=O)NCC(=O)O)[C@@H](C)O)C(C)C)[C@@H](C)O)[C@@H](C)O [D14E]
other
  pH 8 Solubility: Y

## GGEQNPIYWARYADWLFTTPLLLLDLALLVDADEGT [WT-1]
physchem
  pKa: 6

## pHLIP-S—S—(CH2)6-phallacidin [pHLIP-C6phall]
HeLa cells [3]
  cell death: about 60%
HeLa cells [3]; pH 7.4
  antiproliferative effect at neutral pH: no effect is observed

## ACEQNPIYWARYAKWLFTTPLLLLKLALLVDADEGTG [K-pHLIP]
other
  pH 8 Solubility: Y/N

## CCCCCCCC/C=C\CCCCCCCC(=O)OC[C@](C)(O)C[C@@H]1NC(=O)[C@@H]2Cc3c([nH]c4ccccc34)SC[C@H](NC(=O)[C@@H]([C@H](C)O)NC(=O)[C@H](C)NC1=O)C(=O)N1C[C@@H](O)C[C@H]1C(=O)N[C@@H](C)C(=O)N2 [phalloidin-oleate] (cyclo(A[dT]C[cisHyp]A[Trp(2-yl)][X2]); thioether 3-6)
HeLa cells [3]; 1 µM
  inhibition of Hela cell proliferation rate: 60%
HeLa cells [3]; 2 µM
  inhibition of Hela cell proliferation rate: 70%
HeLa cells [3]; 4 µM
  inhibition of Hela cell proliferation rate: 95%
[2]
  Log P: +1.7

## GGEQNPIYWARYADWLFTTPLLLLLDALLVDADEGTCG [D25Down]
other
  pH 8 Solubility: N

## GGEQNPIYWARYADWLFTTPLLLLDLALLVDADEGTCG [WT-Cys3]
other
  pH 8 Solubility: Y

## GGEQNPIYWARYADWLFTTPLLLLDLALLVNANQGT [NNQ]
other
  pH 8 Solubility: Y

## AEDQNDPI YWARYADWLFTTPLLLLELALLV EC--G-T-COOH [pHLIP-2E]
[4]; pH 8
  A, frequency factor, first transition: 1.2 × 10^5
  Ea, first transition: 6.0 kcal/mol
  k1, rate constant: 0.20/5.00 s^−1 and 0.28/3.57 s^−1 and 0.34/2.94 s^−1 and 0.39/2.56 s^−1
  t1, characteristic time: 0.20/5.00 s and 0.28/3.57 s and 0.34/2.94 s and 0.39/2.56 s
[1]
  λmax, maximum position of fluorescence spectrum: 339.2 nm
[1]; pH 8
  λmax, maximum position of fluorescence spectrum: 351.2 nm and 341.3 nm

## DDDEDNPIYWARYADWLFTTPLLLLHGALLVDADECT [2H3 or D3a]
other
  pH 8 Solubility: Y

## GGEQNPIYWAQYDAWLFTTPLLLLDLALLVDADEGTCG [R11Q; D14Up]
other
  pH 8 Solubility: Y

## ACEQNPIYWARYANWLFTTPLLLLNLALLVDADEGTG [N-pHLIP]
other
  pH 8 Solubility: Y

## ACEEQNPWARYLEWLFPTETLLLEL [Cys-Short-3E]
tumor
  retention in kidney: also retained in the kidney after 24 hours

## DDDEDNPIYWARYAHWLFTTPLLLLHGALLVNADECT [D1]
other
  pH 8 Solubility: Y

## AEQNPI YFARYADELFTTPLLLLDLALLW DADET-COOH [pHLIP-W3]
[4]; pH 3.6
  characteristic time, first component, exit: 0.06 s (14.9 s^−1)
  characteristic time, second component, exit: 0.35 s (2.88 s^−1)
  rate constant, first component, exit: 0.06 s (14.9 s^−1)
  rate constant, second component, exit: 0.35 s (2.88 s^−1)

## Phallacidin-(CH2)n—SH, n=10 [phallC10SH]
[2]
  Log P (octanol-water partition coefficient): +1.28

## Ac-AAEQNPIYWARYADWLFTTPLLLLDLALLVDADEGTKCG [pHLIP-KC]
other
  pH 8 Solubility: Y
physchem
  pKa: 6.16

## pHLIP-S—S-CCTCTTACCTCAGTTACA (all peptide nucleic acid (PNA); pHLIP peptide disulfide-linked to the PNA, end not given here) [pHLIP-PNA construct]
[5]
  luciferase activity localized to tumor sites: significantly higher luciferase activity
  uptake by cells in vivo compared to other constructs: Significantly greater amounts

## DDDEDNPIYWARYAHWLFTTPLLLLHGALLVDADECT [2H2 or D2]
other
  pH 8 Solubility: Y

## Gadolinium-tetraazacyclododecanetetraacetic acid [Gd-DOTA control]
tumors
  % T1 Change (3 hrs): 5.27% and −3.05%
  % T1 Change (24 hrs): 10.7% and 5.02%
  T1 3 hrs: 920.4 ms and 879.2 ms
  T1 24 hrs: 967.6 ms and 952.4 ms

## aminophalloidin [reference compound]
HeLa cells [6]
  inhibitory effect on HeLa proliferation: no inhibitory effect
M4A4 cells
  inhibitory effect on M4A4 proliferation: no inhibitory effect

## Phallacidin-(CH2)n—SH, n=4 [phallC4SH]
[2]
  Log P (octanol-water partition coefficient): −0.74

## DDDEDNPIYWARYAHWLFTTPLLLLHGALLVNANECT [D0 or H2N2]
other
  pH 8 Solubility: Y

## GGEQNPIYWARYDAWLFTTPLLLLDLALLVDADEGTCG [D14Up]
other
  pH 8 Solubility: Y

## Phallacidin-(CH2)n—SH, n=6 [phallC6SH]
HeLa cells [3]
  antiproliferative effect at either pH: does not demonstrate an antiproliferative effect at either pH

## ACDDQNPWRAYLDLLFPTDTLLLDLLW [Var3-3D]
tumor
  retention in kidney: also retained in the kidney after 24 hours

## AAEQNPIYWARYADWLFTTPLLLLDLALLVDADEGTCG [WT-Cys1]
physchem
  pKa: 6.14
